Measurements reported in paper PMC4264749, “Phlebotomy Treatment for Elimination of Perfluoroalkyl Acids in a Highly Exposed Family: A Retrospective Case-Series” (PLoS ONE, 2014).
Where two headings read alike, the source gives them in different places.

What was measured:
[1] = set-up: method as in PMID 17805419; details: cited from earlier work
[2] = Apparent elimination half-life (HLapp) and phlebotomy efficiency coefficient in treated family members; type: in vivo, human; details: family members with regular phlebotomy, except parent
Source text: To evaluate the effect of phlebotomy, versus the expected rate of intrinsic elimination, we graphically and statistically compared the observed decreasing trends in each family member (fitted to a simple exponential decay model) with reference population elimination kinetics. Specifically, for the reference population of occupationally exposed retirees, we considered: i) the 95% confidence interval of the geometric mean elimination rate for each PFAA, and ii) the fastest individual rate of elimination rate among the reference population. For comparative purposes, the concentration of each PFAA in serum on the first day of the intervention was taken as time zero, and the models were forced through this starting point.
One metric that was calculated to compare the efficiency of the phlebotomy for removal of different PFAAs in each family member was termed the phlebotomy efficiency coefficient (EC). This was based on the subtractive difference between HLapp (yrs) in each treated family member and the geometric mean HLin (yrs) of the reference population according to Equation 1 . [drawing 1] (1)

[3] = set-up: method as in PMID 23980546; details: urinary excretion, China, cited from earlier work
[4] = Serum PFAA concentrations in family members during intermittent phlebotomy (HPLC-MS/MS); type: in vivo, human; details: for Serum concentration before treatment: before phlebotomy
Source text: After receiving informed consent, intermittent phlebotomy was undertaken at an overall rate (Table 2) that was equal to or less than the maximum rate of what is done for routine blood donations at the Canadian Blood Services: ∼500 ccs of whole blood every 56 days. Frequency and timing of blood removal was not consistent between family members because of their personal availability, success at each time of venesection, and compliance of each participant. […] Mineral supplementation was discussed and was taken by each participant.
All serum samples were submitted to ALS Laboratories (Edmonton, AB) for quantitative analysis of PFAAs (see Supporting Information, S1 Table). Samples were extracted by solid phase extraction and concentrations of PFHxS, PFOS, and PFOA were determined using high performance liquid chromatography/tandem mass spectrometry. Formic acid (0.1 M) along with a mixture of isotopically labeled PFAAs (Wellington Laboratories, Guelph, Ontario) were added to 1.0 mL of serum. The mixture was vortexed, sonicated, and subjected to solid phase extraction. The extract was concentrated to 100 uL and an instrument performance internal standard was added along with 200 uL of 90% 20 mM aqueous acetic acid/10% methanol. Procedural blanks were run with each set of samples, and method limits of quantification (LOQ) were 0.5 ng/mL for each analyte. For the few PFAA levels that fell below this LOQ (shown as hollow circles in Figs. 1–3), LOQ/√2 (i.e. 0.35 ng/mL) was substituted for purposes of data analysis. PFHxS, PFOS, and PFOA levels in all participating family members were >LOQ throughout the intervention except for 3 PFOS measurements out of 16 total measurements in the 3rd child and one PFOA measurement out of 9 total measurements in the […]. Written informed consent was given by participants (or parents in the case of children) for their clinical records to be used in this study.

[5] = set-up: method as in earlier work; details: 2009–2011; cited from earlier work

For `O=S(=O)(O)C(F)(F)C(F)(F)C(F)(F)C(F)(F)C(F)(F)C(F)(F)F` [PFHxS, Perfluorohexane sulfonate], the “HLin of fastest eliminator in the reference population” value ([1]; reference population of occupationally exposed retirees (26 individuals)) is listed as 2.2 yrs, the “95% confidence interval of the geometric mean HLin” value ([1]; reference population of occupationally exposed retirees) is listed as 5.8–9.2 yrs and the “intrinsic human elimination half-life (HLin)” value ([1]; serum, highly contaminated retirees >55 yrs, previously occupationally exposed) is listed as 8.5 years. For the same compound, the “HLin, 95% confidence interval” value ([1]; serum, retirees >55 yrs, previously occupationally exposed) was 6.4–10.6 yrs, the “HLapp compared with geometric mean HLin of reference population” value [2] was “significantly shorter” and the HLapp ([3]; males and post-menopausal females) was 35 years. The HLapp ([3]; reproductive-aged females) was 7.7 years, the “Serum concentration before treatment” value ([4]; 1st Child) was 78.6 ng/mL and the Serum concentration ([4]; 1st Child, sampling date 2009.10.12) was 51.9 ng/mL. The Serum concentration ([4]; 1st Child, sampling date 2009.12.24) was 40.5 ng/mL, the Serum concentration ([4]; 1st Child, sampling date 2009.6.9) was 78.6 ng/mL and the Serum concentration ([4]; 1st Child, sampling date 2009.9.9) was 39.0 ng/mL. For the same compound, the Serum concentration ([4]; 1st Child, sampling date 2010.10.14) was 51.9 ng/mL, the Serum concentration ([4]; 1st Child, sampling date 2010.1.17) was 30.3 ng/mL and the Serum concentration ([4]; 1st Child, sampling date 2010.2.11) was 25.3 ng/mL. The Serum concentration ([4]; 1st Child, sampling date 2010.4.14) was 29.9 ng/mL, the Serum concentration ([4]; 1st Child, sampling date 2011.12.5) was 10.0 ng/mL and the Serum concentration ([4]; 1st Child, sampling date 2011.5.17, LOD=0.5ng/mL) was 31.8 ng/mL. The Serum concentration ([4]; 1st Child, sampling date 2011.8.12, LOD=0.5ng/mL) was 27.8 ng/mL, the Serum concentration ([4]; 1st Child, sampling date 2012.12.28, LOD=0.5ng/mL) was 21.7 ng/mL and the Serum concentration ([4]; 1st Child, sampling date 2012.4.24) was 32.7 ng/mL. The Serum concentration ([4]; 1st Child, sampling date 2012.8.21) was 25.1 ng/mL, the Serum concentration ([4]; 1st Child, sampling date 2013.3.30) was 18.1 ng/mL and the Serum concentration ([4]; 1st Child, sampling date 2013.7.30) was 11.9 ng/mL. For the same compound, the “Serum concentration before treatment” value ([4]; 2nd Child) was 140 ng/mL, the Serum concentration ([4]; 2nd Child, sampling date 2009.10.24) was 97.5 ng/mL and the Serum concentration ([4]; 2nd Child, sampling date 2009.6.6) was 140.0 ng/mL. For the same compound, the Serum concentration ([4]; 2nd Child, sampling date 2009.7.2) was 124.0 ng/mL, the Serum concentration ([4]; 2nd Child, sampling date 2009.7.30) was 132.0 ng/mL and the Serum concentration ([4]; 2nd Child, sampling date 2009.8.24) was 162.0 ng/mL. For the same compound, the Serum concentration ([4]; 2nd Child, sampling date 2009.9.27) was 67.2 ng/mL, the Serum concentration ([4]; 2nd Child, sampling date 2010.1.3) was 57.9 ng/mL and the Serum concentration ([4]; 2nd Child, sampling date 2010.2.15) was 44.7 ng/mL. For the same compound, the Serum concentration ([4]; 2nd Child, sampling date 2011.10.2) was 47.4 ng/mL, the Serum concentration ([4]; 2nd Child, sampling date 2011.12.24) was 43.2 ng/mL and the Serum concentration ([4]; 2nd Child, sampling date 2011.4.27) was 72.3 ng/mL. For the same compound, the Serum concentration ([4]; 2nd Child, sampling date 2011.8.14) was 63.0 ng/mL, the Serum concentration ([4]; 2nd Child, sampling date 2012.12.24) was 78.7 ng/mL and the Serum concentration ([4]; 2nd Child, sampling date 2012.4.6) was 48.3 ng/mL. For the same compound, the Serum concentration ([4]; 2nd Child, sampling date 2013.5.11.) was 34.8 ng/mL, the Serum concentration ([4]; 2nd Child, sampling date 2013.7.15) was 27.1 ng/mL and the “Serum concentration before treatment” value ([4]; 3rd Child) was 293 ng/mL. For the same compound, the Serum concentration ([4]; 3rd Child, sampling date 2010.3.12) was 168.0 ng/mL, the Serum concentration ([4]; 3rd Child, sampling date 2010.5.23) was 85.2 ng/mL and the Serum concentration ([4]; 3rd Child, sampling date 2011.1.6) was 98.7 ng/mL. It also gave a Serum concentration ([4]; 3rd Child, sampling date 2011.11.26) of 31.2 ng/mL, a Serum concentration ([4]; 3rd Child, sampling date 2011.2.24) of 114.0 ng/mL and a Serum concentration ([4]; 3rd Child, sampling date 2011.4.30) of 82.8 ng/mL. It also gave a Serum concentration ([4]; 3rd Child, sampling date 2011.6.13) of 92.0 ng/mL, a Serum concentration ([4]; 3rd Child, sampling date 2011.9.27) of 108.0 ng/mL and a Serum concentration ([4]; 3rd Child, sampling date 2012.10.16) of 63.9 ng/mL. It also gave a Serum concentration ([4]; 3rd Child, sampling date 2012.1.8) of 51.0 ng/mL, a Serum concentration ([4]; 3rd Child, sampling date 2012.12.9) of 95.4 ng/mL and a Serum concentration ([4]; 3rd Child, sampling date 2012.3.4) of 61.5 ng/mL. The Serum concentration ([4]; 3rd Child, sampling date 2012.4.28) was 110.0 ng/mL, the “Serum concentration before treatment” value ([4]; 4th Child) was 167 ng/mL and the “starting serum concentration relative to 95th centile among Canadians” value ([4]; 4th child (4th child)) was ~20 fold. For the same compound, the “Serum concentration after treatment” value ([4]; Average of 6 family members, after phlebotomy) was 23.3 ng/mL, the “Serum concentration before treatment” value ([4]; Average of 6 family members) was 125 ng/mL and the “Serum concentration before treatment” value ([4]; Parent one) was 44.1 ng/mL. It also gave a Serum concentration ([4]; Parent one, sampling date 2009.10.11) of 20.3 ng/mL, a Serum concentration ([4]; Parent one, sampling date 2009.10.12) of 25.0 ng/mL and a Serum concentration ([4]; Parent one, sampling date 2009.11.12) of 29.5 ng/mL. It also gave a Serum concentration ([4]; Parent one, sampling date 2009.12.14) of 35.4 ng/mL, a Serum concentration ([4]; Parent one, sampling date 2009.2.2) of 44.1 ng/mL and a Serum concentration ([4]; Parent one, sampling date 2009.5.18) of 35.0 ng/mL. It also gave a Serum concentration ([4]; Parent one, sampling date 2009.6.1) of 41.7 ng/mL, a Serum concentration ([4]; Parent one, sampling date 2009.7.4) of 26.8 ng/mL and a Serum concentration ([4]; Parent one, sampling date 2009.9.1) of 43.5 ng/mL. It also gave a Serum concentration ([4]; Parent one, sampling date 2010.10.10) of 22.4 ng/mL, a Serum concentration ([4]; Parent one, sampling date 2010.1.17) of 34.5 ng/mL and a Serum concentration ([4]; Parent one, sampling date 2010.3.13) of 21.2 ng/mL. For the same compound, the Serum concentration ([4]; Parent one, sampling date 2011.1.6) was 19.2 ng/mL, the Serum concentration ([4]; Parent one, sampling date 2011.11.26) was 8.7 ng/mL and the Serum concentration ([4]; Parent one, sampling date 2011.2.24) was 13.1 ng/mL. The Serum concentration ([4]; Parent one, sampling date 2011.4.30) was 18.8 ng/mL, the Serum concentration ([4]; Parent one, sampling date 2011.6.22) was 16.9 ng/mL and the Serum concentration ([4]; Parent one, sampling date 2011.8.4) was 18.0 ng/mL. It also gave a Serum concentration ([4]; Parent one, sampling date 2011.9.27) of 25.7 ng/mL, a Serum concentration ([4]; Parent one, sampling date 2012..12.28) of 17.4 ng/mL and a Serum concentration ([4]; Parent one, sampling date 2012.1.14) of 21.5 ng/mL. For the same compound, the Serum concentration ([4]; Parent one, sampling date 2012.11.1) was 19.1 ng/mL, the Serum concentration ([4]; Parent one, sampling date 2012.3.4) was 19.5 ng/mL and the Serum concentration ([4]; Parent one, sampling date 2012.4.29) was 23.1 ng/mL. The Serum concentration ([4]; Parent one, sampling date 2012.7.8) was 18.3 ng/mL, the Serum concentration ([4]; Parent one, sampling date 2012.8.21) was 21.7 ng/mL and the Serum concentration ([4]; Parent one, sampling date 2013.10.27) was 8.8 ng/mL. The Serum concentration ([4]; Parent one, sampling date 2013.2.18) was 15.7 ng/mL, the Serum concentration ([4]; Parent one, sampling date 2013.3.30) was 16.0 ng/mL and the Serum concentration ([4]; Parent one, sampling date 2013.5.11) was 13.1 ng/mL. For the same compound, the Serum concentration ([4]; Parent one, sampling date 2013.7.15) was 7.8 ng/mL, the Serum concentration ([4]; Parent one, sampling date 2013.9.8) was 18.2 ng/mL and the “Serum concentration before treatment” value ([4]; Parent two) was 29.3 ng/mL. For the same compound, the Serum concentration ([4]; Parent two, sampling date 2009.6.1) was 29.3 ng/mL, the Serum concentration ([4]; Parent two, sampling date 2009.7.7) was 21.3 ng/mL and the Serum concentration ([4]; Parent two, sampling date 2009.8.24) was 19.5 ng/mL. For the same compound, the Serum concentration ([4]; Parent two, sampling date 2010.1.3) was 16.3 ng/mL, the Serum concentration ([4]; Parent two, sampling date 2010.4.11, LOD=0.5ng/mL) was 17.8 ng/mL and the Serum concentration ([4]; Parent two, sampling date 2012.3.13) was 16.1 ng/mL. It also gave a Serum concentration ([4]; Parent two, sampling date 2013.1.1) of 13.2 ng/mL, a Serum concentration ([4]; Parent two, sampling date 2013.10.6) of 13.5 ng/mL and a Serum concentration ([4]; Parent two, sampling date 2013.6.22) of 9.1 ng/mL. For the same compound, the “95th percentile of serum concentration among Canadians” value [5] was 8.9 ng/mL.
